The results in this text go back to publication PMC12203311, “Design, synthesis, in silico and in vitro evaluation of pyrrole–indole hybrids as dual tubulin and aromatase inhibitors with potent anticancer activities” (RSC Advances, 2025).

Series [1] has as its system T47D breast cancer cell line. Description: Cytotoxicity MTT assay, T47D. The series is classed as cell-based, human. To be noted: for IC50: MTT, 48 hours; for activity against T47D in two-dose screen: 10 µM and 50 µM. As for the experimental part:
(§1) T47D (ATCC HTB-133) was purchased from Biomedia (Thailand) Co., LTD. L929 (ATCC CCL-1) was received as a gift from Prof. Tanapat Palaga, Department of Microbiology, Faculty of Science, Chulalongkorn University, Bangkok, Thailand. The cells were cultured in Dulbecco's Modified Eagle's Medium (DMEM; Gibco) supplemented with 10% fetal bovine serum (FBS; HyClone), 100 U mL^−1 penicillin and 100 µg mL^−1 streptomycin (Gibco) at 37 °C with 5% CO2.
(§2) The antiproliferative activity was determined by MTT assay. Briefly, the cells were plated into a 96-well microplate at the density of 10 000 cells per well. The cells were allowed to grow overnight before treated with the solutions of compounds in culture medium at the designated concentrations for 48 hours. The medium was then replaced with MTT solution (0.5 mg mL^−1 MTT in culture medium) and incubated for 3 hours. A 100 µL of DMSO was used to dissolve the produced formazan. Absorbance at 570 nm was then measured using a microplate reader (Varioskan™ LUX multimode microplate reader, Thermo Scientific™). Percent viability was calculated relative to the vehicle control (DMSO).

The target in the next series is T1, Human CYP19 (aromatase) (Homo sapiens, UniProt P11511).
T1 construct: purchased GENTEST, Woburn, MA 456260; host or cells: baculovirus/insect cells
T1 sequence (P11511 1-503): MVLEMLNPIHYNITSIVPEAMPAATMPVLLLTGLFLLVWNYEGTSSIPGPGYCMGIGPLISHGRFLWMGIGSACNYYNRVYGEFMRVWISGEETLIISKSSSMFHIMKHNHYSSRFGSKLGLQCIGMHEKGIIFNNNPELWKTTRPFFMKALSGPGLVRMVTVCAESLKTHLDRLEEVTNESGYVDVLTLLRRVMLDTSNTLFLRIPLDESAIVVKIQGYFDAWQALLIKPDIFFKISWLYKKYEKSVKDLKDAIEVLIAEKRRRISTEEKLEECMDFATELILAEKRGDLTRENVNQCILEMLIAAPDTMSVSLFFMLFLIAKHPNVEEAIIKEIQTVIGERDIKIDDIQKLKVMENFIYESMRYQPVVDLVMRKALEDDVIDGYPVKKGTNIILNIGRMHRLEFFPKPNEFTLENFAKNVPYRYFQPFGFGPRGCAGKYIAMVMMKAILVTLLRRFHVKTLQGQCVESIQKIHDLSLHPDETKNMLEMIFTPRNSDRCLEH
Description: Aromatase inhibition assay (DBF fluorometric substrate). The following applies: active defined as IC50 < 12.5 µM. The series is classed as biochemical. As for the experimental part: Aromatase enzyme was purchased from GENTEST, Woburn, MA01801, USA (Supersom human CYP19+oxidoreductase, baculovirus/insect cell-expressed; Product No. 456260). The aromatase inhibitory activity was performed using Human CYP19 enzymes and DBF as a fluorometric substrate as described by Stresser, et al.[41] with minor modifications. The mixture, containing 100 µL of cofactor/serial dilution buffer was pre-incubated in 37 °C for 10 min. […] After incubation at 37 °C for 30 min, the reaction was stopped by addition of 50 µL of 2.2 M NaOH. Fluorescence signal was monitored using an excitation wavelength of 490 nm and emission wavelength of 530 nm.

Series [2] can be described thus: Cytotoxicity MTT assay, L929. To be noted: mouse, L929 fibroblast cells; MTT, 48 hours. The series is classed as cell-based, mouse. As for the experimental part: as §1, §2
The subject of series [3] is L929 normal mouse fibroblast cell line. Description: Cytotoxicity MTT assay, L929. The series is classed as cell-based. The following applies: IC50 (L929)/IC50 (T47D). As for the experimental part:
as §1, §2

The subject of series [4] is NCI60 human cell line panel. Description: NCI60 one-dose screen. The following applies: 10 µM single dose. The series is classed as cell-based. As for the experimental part:
The one-dose experimental protocol followed the method described in this literature.[28] First, all compounds were tested at a single concentration (10 µM) across the entire NCI60 panel. The results of this assay indicate the growth relative to no-drug control and the number of cells at time zero. This method allows for the detection of growth inhibition (values between 0 to 100) and lethality (value below 0).

SMILES strings stand for the structures.

As to `N.N.[Cl][Pt][Cl]` [Cisplatin, reference compound], in series [1], the IC50 was > 100 µM.

`O=C(N/N=C/c1ccco1)c1[nH]c2ccc(Br)cc2c1-c1ccccc1` [Derivative 1a, reference compound] gave an IC50 on Human CYP19 (aromatase) of 11.3 ± 1.7 µM.

Consider `O=C(N/N=C/c1cccs1)c1[nH]c2ccc(Br)cc2c1-c1ccccc1` [Derivative 2a, reference compound], for which, on Human CYP19 (aromatase), the IC50 was > 12.5 µM and the “aromatase inhibition” value is listed as “lacked aromatase inhibition”.

`CCOC(=O)c1cc[nH]c1/C=N/NC(=O)c1[nH]c2ccc(Br)cc2c1-c1ccccc1` [Derivative 3k, Ethyl (E)-2-((2-(5-bromo-3-phenyl-1H-indole-2-carbonyl)hydrazono)methyl)-1H-pyrrole-3-carboxylate] yielded an IC50 at 48 h in series [2] of 15 ± 8.9 µM. Besides, in series [3], the “Selectivity index (SI)” value was 1.42. In addition, the “NCI mean (mean growth percentage over the panel)” value in series [4] is 49%. Moreover, the IC50 against Human CYP19 (aromatase) came to 0.018 ± 0.002 µM; in series [1] (Homo sapiens, T47D), 10.6 ± 1.1 µM.

For the molecule `O=C(O)c1ccc(/C=N/NC(=O)c2[nH]c3ccc(Br)cc3c2-c2ccccc2)[nH]1` [Derivative 3l, (E)-5-((2-(5-Bromo-3-phenyl-1H-indole-2-carbonyl)hydrazono)methyl)-1H-pyrrole-2-carboxylic acid], the “growth inhibition in the single dose experiment” value in series [4] is listed as “mild effects”. Besides, on Human CYP19 (aromatase), the IC50 is > 12.5 µM and the “aromatase inhibition” value is “inactive against aromatase”. The “activity against T47D in two-dose screen” value in series [1] is “weak activity”.

As for `O=C(O)c1c[nH]c(/C=N/NC(=O)c2[nH]c3ccc(Br)cc3c2-c2ccccc2)c1` [Derivative 3m, (E)-5-((2-(5-Bromo-3-phenyl-1H-indole-2-carbonyl)hydrazono)methyl)-1H-pyrrole-3-carboxylic acid], in series [4], the “growth inhibition in the single dose experiment” value was “mild effects”. At Human CYP19 (aromatase), the IC50 was > 12.5 µM and the “aromatase inhibition” value was “inactive against aromatase”. Besides, the “activity against T47D in two-dose screen” value in series [1] is “weak activity”.

As to `O=C(N/N=C/c1cc(C(=O)N2CCOCC2)c[nH]1)c1[nH]c2ccc(Br)cc2c1-c1ccccc1` [Derivative 3o, (E)-5-Bromo-N′-((4-(morpholine-4-carbonyl)-1H-pyrrol-2-yl)methylene)-3-phenyl-1H-indole-2-carbohydrazide], the IC50 at 48 h in series [2] was found to be 43.2 ± 9.9 µM. In series [4], the “NCI mean (mean growth percentage over the panel)” value is recorded as 45%. The IC50 is 1.6 ± 0.4 µM against Human CYP19 (aromatase) and 14.9 ± 1 µM in series [1] (Homo sapiens, T47D).

Regarding `O=C(O)c1cc(/C=N/NC(=O)c2[nH]c3ccc(Br)cc3c2-c2ccccc2)c[nH]1` [Derivative 3w, (E)-4-((2-(5-Bromo-3-phenyl-1H-indole-2-carbonyl)hydrazono)methyl)-1H-pyrrole-2-carboxylic acid], on Human CYP19 (aromatase), the 50% inhibitory concentration (IC50) was > 12.5 µM and the “aromatase inhibition” value was “inactive against aromatase”. Also, in series [1], the “activity against T47D in two-dose screen” value is “weak activity”.

On Human CYP19 (aromatase), `O=C(N/N=C/c1c[nH]c(C(=O)N2CCOCC2)c1)c1[nH]c2ccc(Br)cc2c1-c1ccccc1` [Derivative 3x, (E)-5-Bromo-N′-((5-(morpholine-4-carbonyl)-1H-pyrrol-3-yl)methylene)-3-phenyl-1H-indole-2-carbohydrazide] returned a half-inhibitory concentration (IC50) of 3.7 ± 0.6 µM. Besides, the “activity against T47D in two-dose screen” value in series [1] is recorded as “weak activity”.
